# Test results taken from patent US9108921B2, “Therapeutic compounds and compositions” (AGIOS PHARMACEUTICALS, INC, priority 2014, dated 2015).
# Assays:
# PKR R532W = PKR R532W (Homo sapiens, UniProt P30613, R532W); assay: PKR Mutant Assay, AC50 against PKR R532W; assay type: biochemical; settings: mutant PKR R532W enzyme
# Outline: (§1)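 Human PKR (WT or mutant, 80-400 ng/well) in 50 mM Tris pH 7.5, 100 mM KCl, 5 mM MgCl2, 1 mM DTT, 0.03% BSA with PEP 0.1-0.5 mM, NADH 180 uM and LDH, preincubated 60 min at room temperature with compound (11-point 3-fold series from 100 μM final, 1% DMSO). ADP 0.22-1.65 mM started reaction; A340 followed.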
# PKR WT [1] = biological target: T1, PKR WT (Homo sapiens, UniProt P30613); assay: PKR WT enzymatic AC50 assay; assay type: biochemical; settings: wild type PKR
# T1 sequence (P30613 whole entry): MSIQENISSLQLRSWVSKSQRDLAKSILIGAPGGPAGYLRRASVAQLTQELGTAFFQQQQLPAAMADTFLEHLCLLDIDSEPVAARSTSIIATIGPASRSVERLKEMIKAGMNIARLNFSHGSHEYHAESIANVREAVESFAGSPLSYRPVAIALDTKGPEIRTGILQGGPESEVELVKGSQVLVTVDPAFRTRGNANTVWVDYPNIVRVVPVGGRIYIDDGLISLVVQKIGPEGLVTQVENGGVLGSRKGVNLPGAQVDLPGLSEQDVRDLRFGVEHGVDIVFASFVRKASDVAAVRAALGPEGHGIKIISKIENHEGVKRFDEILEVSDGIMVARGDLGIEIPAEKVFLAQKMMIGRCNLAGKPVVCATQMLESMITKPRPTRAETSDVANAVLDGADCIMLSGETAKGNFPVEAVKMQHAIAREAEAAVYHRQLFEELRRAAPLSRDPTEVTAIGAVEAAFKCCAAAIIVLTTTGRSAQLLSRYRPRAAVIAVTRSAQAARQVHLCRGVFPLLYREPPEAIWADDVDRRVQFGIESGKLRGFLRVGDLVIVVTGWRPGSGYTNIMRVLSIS
# Outline: as §1
# PKR WT [2] = biological target: T1, PKR WT; assay: PKR WT cell based AC50 assay; settings: wild type PKR
# PKR R510Q = PKR R510Q (Homo sapiens, UniProt P30613, R510Q); assay: PKR Mutant Assay, AC50 against PKR R510Q; assay type: biochemical; settings: mutant PKR R510Q enzyme
# Chain of PKR R510Q (P30613 whole entry R510Q): as the sequence (P30613 whole entry) above, with R510Q counted along it
# Outline: as §1
# Chain of PKR R532W (P30613 whole entry R532W): as the sequence (P30613 whole entry) above, with R532W counted along it
SMILES,AC50 (PKR R532W) [µM],AC50 (PKR WT [1]) [µM],AC50 (PKR WT [2]) [µM],AC50 (PKR R510Q) [µM]
"O=C(c1ccc(NS(=O)(=O)c2cccc3cccnc23)cc1)N1CCC(O)(c2cccc(F)c2F)CC1 [Compound 100, N-[4-[4-(2,3-difluorophenyl)-4-hydroxy-piperidine-1-carbonyl]phenyl]quinoline-8-sulfonamide]",< 0.1,< 0.1,< 0.1,< 0.1
"Cc1cc(C(=O)N2CCC(O)(Cc3ccccc3)CC2)ccc1NS(=O)(=O)c1cccc2cccnc12 [Compound 101, N-(4-(4-benzyl-4-hydroxypiperidine-1-carbonyl)-2-methylphenyl)quinoline-8-sulfonamide]",< 0.1,< 0.1,< 0.1,< 0.1
"O=C(c1ccc(NS(=O)(=O)c2cccc3c2OCCC3)cc1)N1CCC(O)(c2ccccc2Cl)CC1 [Compound 102, N-(4-(4-(2-chlorophenyl)-4-hydroxypiperidine-1-carbonyl)phenyl)chroman-8-sulfonamide]",< 0.1,< 0.1,< 0.1,< 0.1
"Cc1ccccc1C1(O)CCN(C(=O)c2ccc(NS(=O)(=O)c3cccc4cccnc34)cc2)CC1 [Compound 103, N-(4-(4-hydroxy-4-(o-tolyl)piperidine-1-carbonyl)phenyl)quinoline-8-sulfonamide]",< 0.1,< 0.1,< 0.1,< 0.1
"Cc1cc(C(=O)N2CCC(O)(c3ccccc3Cl)CC2)ccc1NS(=O)(=O)c1cccc2cccnc12 [Compound 104, N-(4-(4-(2-chlorophenyl)-4-hydroxypiperidine-1-carbonyl)-2-methylphenyl)quinoline-8-sulfonamide]",< 0.1,< 0.1,< 0.1,< 0.1
"O=C(c1ccc(NS(=O)(=O)c2cccc3cccnc23)cc1)N1CCC(O)(Cc2cccc(F)c2)CC1 [Compound 105, N-(4-(4-(3-fluorobenzyl)-4-hydroxypiperidine-1-carbonyl)phenyl)quinoline-8-sulfonamide]",< 0.1,< 0.1,< 0.1,< 0.1
"Cc1ccccc1CC1(O)CCN(C(=O)c2ccc(NS(=O)(=O)c3cccc4cccnc34)cc2)CC1 [Compound 108, N-(4-(4-hydroxy-4-(2-methylbenzyl)piperidine-1-carbonyl)phenyl)quinoline-8-sulfonamide]",< 0.1,< 0.1,< 0.1,< 0.1
"O=C(c1ccc(NS(=O)(=O)c2cccc3cccnc23)cc1)N1CCC(O)(Cc2ccccc2C(F)(F)F)CC1 [Compound 109, N-(4-(4-hydroxy-4-(2-(trifluoromethyl)benzyl)piperidine-1-carbonyl)phenyl)quinoline-8-sulfonamide]",< 0.1,< 0.1,< 0.1,< 0.1
"O=C(c1ccc(NS(=O)(=O)c2cccc3cccnc23)cc1)N1CCC(O)(Cc2ccccc2F)CC1 [Compound 110, N-(4-(4-(2-fluorobenzyl)-4-hydroxypiperidine-1-carbonyl)phenyl)quinoline-8-sulfonamide]",< 0.1,< 0.1,< 0.1,< 0.1
"O=C(c1ccc(NS(=O)(=O)c2cccc3cccnc23)cc1)N1CCC(O)(c2ccc(F)cc2Cl)CC1 [Compound 111, N-[4-[4-(2-chloro-4-fluoro-phenyl)-4-hydroxy-piperidine-1-carbonyl]phenyl]quinoline-8-sulfonamide]",< 0.1,< 0.1,< 0.1,< 0.1
"COc1cc(NS(=O)(=O)c2cccc3cccnc23)ccc1C(=O)N1CCC(O)(Cc2ccccc2)CC1 [Compound 112, N-(4-(4-benzyl-4-hydroxypiperidine-1-carbonyl)-3-methoxyphenyl)quinoline-8-sulfonamide]",< 0.1,< 0.1,0.101 to 1,< 0.1
"O=C(c1ccc(NS(=O)(=O)c2cccc3cccnc23)cc1)N1CCC(O)(c2ccccc2C(F)F)CC1 [Compound 113, N-[4-[4-[2-(difluoromethyl)phenyl]-4-hydroxy-piperidine-1-carbonyl]phenyl]quinoline-8-sulfonamide]",< 0.1,< 0.1,< 0.1,< 0.1
"O=C(c1ccc(NS(=O)(=O)c2cccc3nccnc23)cc1)N1CCC(O)(Cc2ccccc2C(F)(F)F)CC1 [Compound 114, N-(4-(4-hydroxy-4-(2-(trifluoromethyl)benzyl)piperidine-1-carbonyl)phenyl)quinoxaline-5-sulfonamide]",< 0.1,< 0.1,< 0.1,< 0.1
"O=C(c1ccc(NS(=O)(=O)c2cccc3cccnc23)cc1F)N1CCC(O)(Cc2ccccc2)CC1 [Compound 115, N-(4-(4-benzyl-4-hydroxypiperidine-1-carbonyl)-3-fluorophenyl)quinoline-8-sulfonamide]",< 0.1,< 0.1,< 0.1,< 0.1
"COc1ccccc1CC1(O)CCN(C(=O)c2ccc(NS(=O)(=O)c3cccc4cccnc34)cc2)CC1 [Compound 116, N-(4-(4-hydroxy-4-(2-methoxybenzyl)piperidine-1-carbonyl)phenyl)quinoline-8-sulfonamide]",< 0.1,< 0.1,< 0.1,< 0.1
"CC(C)(C)CC1(O)CCN(C(=O)c2ccc(NS(=O)(=O)c3cccc4cccnc34)cc2)CC1 [Compound 117, N-(4-(4-hydroxy-4-neopentylpiperidine-1-carbonyl)phenyl)quinoline-8-sulfonamide]",< 0.1,< 0.1,< 0.1,< 0.1
"Cc1cccc(CC2(O)CCN(C(=O)c3ccc(NS(=O)(=O)c4cccc5cccnc45)cc3)CC2)c1 [Compound 118, N-(4-(4-hydroxy-4-(3-methylbenzyl)piperidine-1-carbonyl)phenyl)quinoline-8-sulfonamide]",< 0.1,< 0.1,< 0.1,0.101 to 1
"Cc1cc(C(=O)N2CCC(O)(c3ccccc3Cl)CC2)ccc1NS(=O)(=O)c1cccc2nccnc12 [Compound 119, N-(4-(4-(2-chlorophenyl)-4-hydroxypiperidine-1-carbonyl)-2-methylphenyl)quinoxaline-5-sulfonamide]",< 0.1,< 0.1,< 0.1,< 0.1
"O=C(c1ccc(NS(=O)(=O)c2cccc3cccnc23)cc1)N1CCC(O)(Cc2c(F)cccc2F)CC1 [Compound 120, N-(4-(4-(2,6-difluorobenzyl)-4-hydroxypiperidine-1-carbonyl)phenyl)quinoline-8-sulfonamide]",< 0.1,< 0.1,< 0.1,< 0.1
"CC1(CC2(O)CCN(C(=O)c3ccc(NS(=O)(=O)c4cccc5cccnc45)cc3)CC2)CC1 [Compound 121, N-(4-(4-hydroxy-4-((1-methylcyclopropyl)methyl)piperidine-1-carbonyl)phenyl)quinoline-8-sulfonamide]",< 0.1,< 0.1,< 0.1,< 0.1
"O=C(c1ccc(NS(=O)(=O)c2cccc3cccnc23)cc1)N1CCC(O)(c2ccccc2Cl)CC1 [Compound 122, N-(4-(4-(2-chlorophenyl)-4-hydroxypiperidine-1-carbonyl)phenyl)quinoline-8-sulfonamide]",< 0.1,< 0.1,< 0.1,< 0.1
"O=C(c1ccc(NS(=O)(=O)c2cccc3cccnc23)cc1)N1CCC(O)(c2cccc(F)c2Cl)CC1 [Compound 123, N-[4-[4-(2-chloro-3-fluoro-phenyl)-4-hydroxy-piperidine-1-carbonyl]phenyl]quinoline-8-sulfonamide]",< 0.1,< 0.1,< 0.1,< 0.1
"O=C(c1ccc(NS(=O)(=O)c2cccc3cccnc23)cc1)N1CCC(O)(CC2CCC2)CC1 [Compound 124, N-(4-(4-(cyclobutylmethyl)-4-hydroxypiperidine-1-carbonyl)phenyl)quinoline-8-sulfonamide]",< 0.1,< 0.1,< 0.1,< 0.1
O=C(c1ccc(NS(=O)(=O)c2cccc3scnc23)cc1)N1CCC(O)(Cc2ccccc2C(F)(F)F)CC1 [Compound 125],< 0.1,< 0.1,< 0.1,< 0.1
"O=C(c1ccc(NS(=O)(=O)c2cccc3cccnc23)cc1)N1CCC(O)(c2ccccc2C(F)(F)F)CC1 [Compound 126, N-(4-(4-hydroxy-4-(2-(trifluoromethyl)phenyl)piperidine-1-carbonyl)phenyl)quinoline-8-sulfonamide]",< 0.1,< 0.1,< 0.1,< 0.1
"O=C(c1ccc(NS(=O)(=O)c2cccc3cccnc23)cc1)N1CCC(CO)(Cc2ccccc2)CC1 [Compound 149, N-(4-(4-benzyl-4-(hydroxymethyl)piperidine-1-carbonyl)phenyl)quinoline-8-sulfonamide]",< 0.1,< 0.1,< 0.1,
"CS(=O)(=O)c1cccc(C2(O)CCN(C(=O)c3ccc(NS(=O)(=O)c4cccc5cccnc45)cc3)CC2)c1 [Compound 182, N-(4-(4-hydroxy-4-(3-(methylsulfonyl)phenyl)piperidine-1-carbonyl)phenyl)quinoline-8-sulfonamide]",,< 0.1,< 0.1,1.01 to 10
CC(C)CC1(O)CCN(C(=O)c2ccc(NS(=O)(=O)c3cccc4[nH]c(=O)cnc34)cc2)CC1 [Compound 438],1.01 to 10,1.01 to 10,,1.01 to 10
